In ChEMBL document CHEMBL6096732 (J Med Chem, 2025):
Activity calls are given as the source filed them. The rule behind the calls is not given here.

Assays:
4T1 [1] = experiment: Antitumor activity against mouse 4T1 cells implanted in female BALB/c mouse model assessed as decrease in PAPR1 expression in tumor administrated orally as once daily dose via gavage for 14 days by DAPI staining based immunofluorescence analysis; format: functional, cell-based; conditions: route po, time 14.0 day
[2] = biological target: Protein deacetylase HDAC6 (Homo sapiens, UniProt Q9UBN7); experiment: Inhibition of recombinant full length human HDAC6 using Boc-Lys(acetyl)-AMC as substrate preincubated for 1 hr followed by substrate addition and measured after 2 hrs by fluorescence based micro plate reader analysis
Protein deacetylase HDAC6, sequence (Q9UBN7 whole entry): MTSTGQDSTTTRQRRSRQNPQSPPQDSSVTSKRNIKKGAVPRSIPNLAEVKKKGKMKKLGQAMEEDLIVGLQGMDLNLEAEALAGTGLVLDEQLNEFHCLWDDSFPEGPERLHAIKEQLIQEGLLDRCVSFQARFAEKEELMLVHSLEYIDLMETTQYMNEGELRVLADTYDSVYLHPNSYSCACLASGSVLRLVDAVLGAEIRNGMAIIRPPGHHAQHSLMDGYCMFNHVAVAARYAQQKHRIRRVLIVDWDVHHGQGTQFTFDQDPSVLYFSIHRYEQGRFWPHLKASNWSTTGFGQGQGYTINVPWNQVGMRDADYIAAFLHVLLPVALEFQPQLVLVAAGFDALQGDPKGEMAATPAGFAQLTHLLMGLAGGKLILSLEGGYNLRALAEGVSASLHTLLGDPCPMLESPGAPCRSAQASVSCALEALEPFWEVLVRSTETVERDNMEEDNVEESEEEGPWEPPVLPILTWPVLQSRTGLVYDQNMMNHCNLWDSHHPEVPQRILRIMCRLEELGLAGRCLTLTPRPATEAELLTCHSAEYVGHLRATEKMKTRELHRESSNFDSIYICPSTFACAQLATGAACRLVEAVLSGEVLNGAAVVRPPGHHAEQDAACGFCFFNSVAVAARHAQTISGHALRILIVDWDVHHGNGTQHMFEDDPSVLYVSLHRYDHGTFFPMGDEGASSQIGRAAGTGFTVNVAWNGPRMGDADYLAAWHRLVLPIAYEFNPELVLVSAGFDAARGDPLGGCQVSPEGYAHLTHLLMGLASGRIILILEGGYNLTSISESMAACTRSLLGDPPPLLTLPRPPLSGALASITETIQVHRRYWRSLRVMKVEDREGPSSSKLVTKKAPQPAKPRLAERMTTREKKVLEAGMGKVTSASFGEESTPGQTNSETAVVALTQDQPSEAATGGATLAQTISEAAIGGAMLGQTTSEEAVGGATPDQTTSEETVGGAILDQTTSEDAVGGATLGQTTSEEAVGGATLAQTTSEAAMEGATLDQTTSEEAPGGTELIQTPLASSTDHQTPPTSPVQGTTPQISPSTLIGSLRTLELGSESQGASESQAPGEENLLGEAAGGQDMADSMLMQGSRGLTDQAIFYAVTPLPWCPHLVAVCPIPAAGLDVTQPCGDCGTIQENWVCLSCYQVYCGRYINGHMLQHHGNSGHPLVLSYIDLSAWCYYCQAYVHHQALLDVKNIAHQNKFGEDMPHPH

Histone deacetylase 3 = Histone deacetylase 3 (Homo sapiens, UniProt O15379); conditions: dose 500.0 nM, time 3.0 hrs;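 also: recombinant HDAC3 enzyme with Boc-Lys(acetyl)-AMC substrate, fluorescence readout, compound preincubated 1 hr before a 2 hr reaction, inhibition expressed relative to control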
Histone deacetylase 3, sequence (O15379 whole entry): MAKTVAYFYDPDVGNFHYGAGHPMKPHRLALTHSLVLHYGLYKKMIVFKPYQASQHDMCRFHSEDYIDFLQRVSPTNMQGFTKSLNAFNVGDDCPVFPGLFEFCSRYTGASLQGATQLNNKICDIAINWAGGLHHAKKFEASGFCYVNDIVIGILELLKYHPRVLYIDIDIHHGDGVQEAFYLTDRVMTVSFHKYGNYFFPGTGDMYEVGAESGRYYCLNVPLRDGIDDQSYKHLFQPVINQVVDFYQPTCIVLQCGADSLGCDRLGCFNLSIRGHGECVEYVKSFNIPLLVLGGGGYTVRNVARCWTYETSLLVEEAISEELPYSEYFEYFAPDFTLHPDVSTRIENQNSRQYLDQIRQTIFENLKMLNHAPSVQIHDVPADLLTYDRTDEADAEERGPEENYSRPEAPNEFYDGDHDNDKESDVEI

4T1 [3] = experiment: Induction of DNA damage in mouse 4T1 cells assessed as increase in gamma-H2AX expression at 2 uM incubated for 24 hrs in presence of olaparib by Western blot analysis; format: functional, cell-based
[4] = MRT (0 to t) in male Sprague-Dawley rat at 2 mg/kg, iv measured after 12 hrs by LC-MS/MS analysis; format: ADME, organism-based; conditions: in vivo
Mus musculus [5] = experiment: Effect on acetylated alpha-tubulin level in male C57BL/6 mouse tumor implanted with mouse B16-F10 cells at 50 mg/kg, po administered once daily via gavage for 14 days by Western blot analysis; format: functional, organism-based; conditions: time 14.0 day
Histone deacetylase 7 = Histone deacetylase 7 (Homo sapiens, UniProt Q8WUI4); experiment: Inhibition of recombinant HDAC7 (unknown origin) using Boc-Lys(trifluoroacetyl)-AMC as substrate preincubated for 1 hr followed by substrate addition and measured after 2 hrs by fluorescence based micro plate reader analysis
Histone deacetylase 7, sequence (Q8WUI4 whole entry): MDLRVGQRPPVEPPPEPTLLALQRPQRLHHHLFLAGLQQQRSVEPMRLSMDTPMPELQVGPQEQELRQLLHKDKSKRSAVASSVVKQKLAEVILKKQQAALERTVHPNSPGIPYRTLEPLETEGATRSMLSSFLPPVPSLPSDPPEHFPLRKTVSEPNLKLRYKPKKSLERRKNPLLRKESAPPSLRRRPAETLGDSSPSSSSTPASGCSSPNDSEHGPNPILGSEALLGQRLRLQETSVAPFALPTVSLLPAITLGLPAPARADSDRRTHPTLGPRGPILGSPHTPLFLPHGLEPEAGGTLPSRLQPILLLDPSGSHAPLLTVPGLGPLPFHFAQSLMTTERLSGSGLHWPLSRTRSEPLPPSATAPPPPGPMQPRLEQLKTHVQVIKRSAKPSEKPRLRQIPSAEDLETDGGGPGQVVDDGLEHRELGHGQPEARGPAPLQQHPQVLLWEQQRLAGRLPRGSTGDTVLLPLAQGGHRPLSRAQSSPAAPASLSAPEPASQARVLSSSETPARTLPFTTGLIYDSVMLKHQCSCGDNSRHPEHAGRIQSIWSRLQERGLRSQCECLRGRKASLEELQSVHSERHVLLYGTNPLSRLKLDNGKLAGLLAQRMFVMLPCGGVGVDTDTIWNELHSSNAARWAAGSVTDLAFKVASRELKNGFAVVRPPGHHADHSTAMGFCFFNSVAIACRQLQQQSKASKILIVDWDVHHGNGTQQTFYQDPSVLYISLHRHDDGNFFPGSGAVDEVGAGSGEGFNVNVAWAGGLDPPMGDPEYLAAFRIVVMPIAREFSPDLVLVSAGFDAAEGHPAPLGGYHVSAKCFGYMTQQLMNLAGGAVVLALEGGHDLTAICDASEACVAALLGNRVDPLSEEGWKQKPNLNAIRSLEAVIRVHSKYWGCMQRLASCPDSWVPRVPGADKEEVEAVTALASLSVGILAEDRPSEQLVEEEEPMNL

4T1 [6] = experiment: Induction of DNA damage in mouse 4T1 cells assessed as increase in gamma-H2AX expression at 2 uM incubated for 24 hrs by Western blot analysis; format: functional, cell-based
[7] = biological target: Programmed cell death 1 ligand 1 (Mus musculus, UniProt Q9EP73); experiment: (§1) Induction of PD-L1 degradation in mouse B16-F10 cells assessed as decrease in PD-L1 protein level incubated for 24 hrs by Western blot analysis; format: cell-based
Programmed cell death 1 ligand 1, sequence (Q9EP73 whole entry): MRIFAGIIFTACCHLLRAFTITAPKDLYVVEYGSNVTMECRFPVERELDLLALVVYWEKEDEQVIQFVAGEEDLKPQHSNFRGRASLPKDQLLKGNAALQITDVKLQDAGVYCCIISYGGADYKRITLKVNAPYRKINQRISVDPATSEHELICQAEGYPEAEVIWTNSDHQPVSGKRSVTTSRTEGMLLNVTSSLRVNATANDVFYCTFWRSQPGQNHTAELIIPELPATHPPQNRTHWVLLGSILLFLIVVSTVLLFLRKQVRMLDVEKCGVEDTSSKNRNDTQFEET

[8] = biological target: Programmed cell death 1 ligand 1 (Mus musculus) (UniProt Q9EP73); experiment: as §1; format: cell-based
Programmed cell death 1 ligand 1 (Mus musculus), sequence (Q9EP73 whole entry): as above

Histone deacetylase 2 = Histone deacetylase 2 (Homo sapiens, UniProt Q92769); experiment: Inhibition of recombinant HDAC2 (unknown origin) using Boc-Lys(acetyl)-AMC as substrate preincubated for 1 hr followed by substrate addition and measured after 2 hrs by fluorescence based micro plate reader analysis
Histone deacetylase 2, sequence (Q92769 whole entry): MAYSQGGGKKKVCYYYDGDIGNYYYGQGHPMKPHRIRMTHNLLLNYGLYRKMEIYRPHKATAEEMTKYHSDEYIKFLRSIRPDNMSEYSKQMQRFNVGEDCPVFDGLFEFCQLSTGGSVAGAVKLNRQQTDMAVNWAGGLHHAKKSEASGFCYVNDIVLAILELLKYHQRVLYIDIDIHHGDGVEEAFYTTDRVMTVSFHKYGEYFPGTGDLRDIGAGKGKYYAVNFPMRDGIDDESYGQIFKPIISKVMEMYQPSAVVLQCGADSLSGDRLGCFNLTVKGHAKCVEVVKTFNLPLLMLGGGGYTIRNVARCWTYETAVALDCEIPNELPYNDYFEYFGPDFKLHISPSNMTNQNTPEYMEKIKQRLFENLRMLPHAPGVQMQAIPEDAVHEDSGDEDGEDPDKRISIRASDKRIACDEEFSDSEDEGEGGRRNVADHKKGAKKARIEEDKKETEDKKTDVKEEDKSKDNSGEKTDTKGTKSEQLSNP

B16-F10 [9] = experiment: Synergistic antitumor activity against mouse B16-F10 cells implanted in male C57BL/6 mouse model assessed as tumor growth inhibition at 50 mg/kg, po co-administered with NP-19 as once daily dosage via gavage for 14 days relative to control; format: functional; conditions: B16-F10, 336 h, time 14 day, read-out: TGI
4T1 [10] = experiment: Downregulation of PARP1 expression in mouse 4T1 cells at 5 uM by DAPI staining based immunofluorescence analysis; format: functional, cell-based
[11] = Toxicity in male C57BL/6 mouse implanted with mouse B16-F10 cells assessed as histopathological changes in kidney at 50 mg/kg, po co-administered with NP-19 as once daily dosage via gavage for 14 days by HandE staining based microscopic analysis; format: organism-based; conditions: in vivo, 336 h, time 14 day
[12] = MRT (0 to t) in male Sprague-Dawley rat at 20 mg/kg, po measured after 12 hrs by LC-MS/MS analysis; format: ADME, organism-based; conditions: in vivo
HCT-116 = experiment: cells; format: functional, cell-based; conditions: Homo sapiens, HCT-116, 72 h
Description: Antiproliferative activity against human HCT-116 cells assessed as inhibition of cell growth incubated for 72 hrs by MTT assay

Mus musculus [13] = experiment: In vivo induction of PD-L1 degradation in male C57BL/6 mouse model implanted with mouse B16-F10 cells assessed as decrease in PD-L1 protein expression in tumor at 50 mg/kg, po administered once daily via gavage for 14 days by DAPI staining based immunofluorescence analysis; format: functional, organism-based; conditions: time 14.0 day
B16-F10 [14] = experiment: Induction of DNA damage in mouse B16-F10 cells assessed as increase in gamma-H2AX expression at 2 uM incubated for 24 hrs in presence of olaparib by Western blot analysis; format: functional, cell-based
4T1 [15] = experiment: Antitumor activity against mouse 4T1 cells implanted in female BALB/c mouse model assessed as decrease in PAPR1 expression in tumor co-administrated orally with olaparib as once daily dose via gavage for 14 days by Western blot analysis; format: functional, cell-based; conditions: route po, time 14.0 day
Mus musculus [16] = experiment: In vivo induction of PD-L1 degradation in male C57BL/6 mouse model implanted with mouse B16-F10 cells assessed as decrease in PD-L1 protein expression in tumor at 50 mg/kg, po co-administered with NP-19 as once daily dosage via gavage for 14 days by Western blot analysis; format: functional, organism-based; conditions: time 14.0 day
[17] = AUMC (0 to t) in male Sprague-Dawley rat at 2 mg/kg, iv measured after 12 hrs by LC-MS/MS analysis; format: ADME, organism-based; conditions: in vivo
[18] = Half-life in male Sprague-Dawley rat at 2 mg/kg, iv measured after 12 hrs by LC-MS/MS analysis; format: ADME, organism-based; conditions: in vivo
[19] = AUMC (0 to infinity) in male Sprague-Dawley rat at 20 mg/kg, po measured after 12 hrs by LC-MS/MS analysis; format: ADME, organism-based; conditions: in vivo
B16-F10 [20] = experiment: Inhibition of cell migration in mouse B16-F10 cells assessed as wound area at 5 uM incubated for 24 hrs by wound healing assay (reference value: 50.36 +/- 1.68 %); format: functional; set-up: scale not given: the % may be the effect or the level left
Histone deacetylase 9 = Histone deacetylase 9 (Homo sapiens, UniProt Q9UKV0); experiment: Inhibition of recombinant HDAC9 (unknown origin) using Boc-Lys(trifluoroacetyl)-AMC as substrate preincubated for 1 hr followed by substrate addition and measured after 2 hrs by fluorescence based micro plate reader analysis
Histone deacetylase 9, sequence (Q9UKV0 whole entry): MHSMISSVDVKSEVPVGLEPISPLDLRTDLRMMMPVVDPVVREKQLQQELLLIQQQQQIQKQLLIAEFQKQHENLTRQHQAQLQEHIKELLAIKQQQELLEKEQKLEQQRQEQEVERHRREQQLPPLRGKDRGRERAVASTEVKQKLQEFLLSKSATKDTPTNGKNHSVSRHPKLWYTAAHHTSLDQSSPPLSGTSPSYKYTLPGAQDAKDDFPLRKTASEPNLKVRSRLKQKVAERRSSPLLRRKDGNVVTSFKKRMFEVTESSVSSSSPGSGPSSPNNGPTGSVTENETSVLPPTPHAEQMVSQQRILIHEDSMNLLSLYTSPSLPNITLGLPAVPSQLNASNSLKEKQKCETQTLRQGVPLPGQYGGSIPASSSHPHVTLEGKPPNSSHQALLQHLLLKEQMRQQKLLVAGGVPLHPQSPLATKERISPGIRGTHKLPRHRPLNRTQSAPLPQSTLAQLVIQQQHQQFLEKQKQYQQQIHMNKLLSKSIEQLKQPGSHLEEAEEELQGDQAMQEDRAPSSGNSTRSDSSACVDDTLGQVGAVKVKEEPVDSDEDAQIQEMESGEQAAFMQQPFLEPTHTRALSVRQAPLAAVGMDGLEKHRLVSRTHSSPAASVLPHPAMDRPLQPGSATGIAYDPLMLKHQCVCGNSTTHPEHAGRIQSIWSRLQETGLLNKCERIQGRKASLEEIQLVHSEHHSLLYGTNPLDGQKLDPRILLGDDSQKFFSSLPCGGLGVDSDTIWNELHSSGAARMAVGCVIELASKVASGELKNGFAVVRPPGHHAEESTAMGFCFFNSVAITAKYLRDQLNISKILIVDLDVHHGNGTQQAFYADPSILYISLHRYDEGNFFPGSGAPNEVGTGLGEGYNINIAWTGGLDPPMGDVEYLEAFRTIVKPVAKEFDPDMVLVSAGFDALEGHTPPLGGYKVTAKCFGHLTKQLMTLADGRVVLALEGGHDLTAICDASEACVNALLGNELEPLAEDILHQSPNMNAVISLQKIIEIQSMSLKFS

4T1 [21] = experiment: Antitumor activity against mouse 4T1 cells implanted in female BALB/c mouse model assessed as tumor growth inhibition co-administrated orally with olaparib as once daily dose via gavage for 14 days relative to control; format: functional; conditions: route po; time 14 day
B16-F10 [22] = experiment: Upregulation of cathepsin B expression in mouse B16-F10 cells at 5 to 20 uM incubated for 24 hrs by Western blot analysis; format: functional, cell-based; conditions: dose 5-20 µM
B16-F10 [23] = experiment: Induction of DNA damage in mouse B16-F10 cells assessed as increase in gamma-H2AX expression at 2 uM incubated for 24 hrs by Western blot analysis; format: functional, cell-based
[24] = Ratio of AUC (0 to t) to AUC (0 to infinity) in male Sprague-Dawley rat at 2 mg/kg, iv measured after 12 hrs by LC-MS/MS analysis; format: ADME, organism-based; conditions: in vivo
[25] = VRT (0 to infinity) in male Sprague-Dawley rat at 20 mg/kg, po measured after 12 hrs by LC-MS/MS analysis; format: ADME, organism-based; conditions: in vivo

With `CCCNNC(=O)c1ccc(Cn2c3ccccc3c3c(-c4ccccn4)nc4ccccc4c32)cc1` the Activity (4T1 [1]) was “Active; Comparable To The Effect Of Olaparib”, the IC50 [2] was 8.2 µM and the inhibition (Histone deacetylase 3) was 96%. For the same compound, the Activity (4T1 [3]) was “Active”, the MRT last at 12 h [4] was 44.3 min and the Activity (Mus musculus [5]) was “inactive”. The IC50 (Histone deacetylase 7) was > 10 µM, the Activity (4T1 [6]) was “Active” and the DC50 [7] was 4.03 µM. For the same compound, the Activity [8] was “Dose-dependent-effect”, the IC50 (Histone deacetylase 2) was 9.77 µM and the inhibition in vivo at 50 mg/kg (B16-F10 [9]) was 80%. The Activity (4T1 [10]) was “Active”, the Activity [11] was “Non-toxic” and the MRT last at 12 h [12] was 266 min. The IC50 (HCT-116) was 6.82 µM, the Activity (Mus musculus [13]) was “Active” and the Activity (B16-F10 [14]) was “Active”. For the same compound, the Activity (4T1 [15]) was “Active”, the Activity (Mus musculus [16]) was “Active” and the AUMCt [17] was 626.686 hr.hr.ug/L. The half-life [18] was 37.8 min, the AUMC [19] was 39983.874 hr.hr.ug/L and the Activity (B16-F10 [20]) was 35.33%. The IC50 (Histone deacetylase 9) was > 10 µM, the TGI (4T1 [21]) was 91% and the Activity (B16-F10 [22]) was “Active”. For the same compound, the Activity (B16-F10 [23]) was “Active”, the “Ratio AUC” value [24] was 99.95% and the VRT [25] was 12.987 hr2.
